Two compounds from patent US20060046968A1, “Prodrug substituted benzoxazoles as estrogenic agents” (priority 2004, published 2006) can be followed below.

Data set [1] deals with Progesterone receptor mRNA. Nature of the data set: Progesterone receptor mRNA regulation in the preoptic area of the rat brain. The format is in vivo. As to conditions: 10 mg/kg.
Data set [2] deals with Lewis rats. Nature of the data set: Lewis rat adjuvant-induced arthritis, inhibition protocol: joint score (maximal score per day 12). The format is in vivo.
Data set [3] has as its system Lewis rats. Nature of the data set: Lewis rat adjuvant-induced arthritis, treatment protocol: joint score (maximal score per day 12). The format is in vivo. The note with it: s.c. daily, begun Day 8 after adjuvant.
Data set [4] relates to human endometrial tissue implanted into ovariectomized athymic nude mice. Nature of the data set: Endometriosis test procedure: human endometrial tissue implanted into nude mice. The format is in vivo, mouse. As for the experimental part: This procedure is slightly modified from a published method [Bruner-Tran. et al., Journal of Clinical Investigation 99: 2851-2857 (1997)]. […] Lesions are allowed to establish for at least 10 days, then oral daily dosing begins and continues for at least 15 days. It should be noted that all mice have visible lesions at the start of dosing. At necropsy, the number of mice with lesions is determined, as well as the lesions per mouse.

For another data set, the system named is Female Mongolian gerbils. Nature of the data set: Transient global ischemia in the Mongolian gerbil: neurogranin mRNA in hippocampus. The format is in vivo. The note with it: gerbil hippocampus after 5 min global ischemia; s.c. daily. As for the experimental part: Transient global ischemia in the Mongolian gerbil. The effect of test compounds on preventing or treating brain injury in response to oxygen deprivation/reperfusion were measured using the following test procedure.
Female Mongolian gerbils (60-80 g; Charles River Laboratories, Kingston, N.Y.) were housed in the Wyeth-Ayerst animal care facility Association for Assessment and Acreditation of Laboratory Animal Care (AAALAC) certified with a 12-hour light, 12-hour dark photoperiod and free access to tap water and a low-estrogen casein diet (Purina®; Richmond, Ind.). After acclimation (3-5 days), gerbils were anesthetized with isoflurane (2-3% mixture with O2), ovariectomized (Day 0). […] On Day 6, gerbils (n=4-5/group) were anesthetized with isoflurane, the common carotid arteries visualized via a mid-line neck incision and both arteries simultaneously occluded for 5 minutes with non-traumatic micro aneurysm clips. […]
The degree of neuronal protection was evaluated by in situ hybridization analysis of neurogranin mRNA. […]
Neurogranin mRNA was selected for these studies because it is highly expressed in the hippocampal neurons including CA1, but absent in glia and other cell types present in this brain region. […] The results from 6 sections (40 μm apart) per animal were averaged and statistically evaluated. […]

Data set [5] can be described thus: Microsomal incubation in the presence of UDPGA (glucuronidation). The format is in vitro ADME, rat. The note with it: 100 μM, 37° C., 60 mins, with UDPGA. As for the experimental part:
An analytical scale incubation of ERB-041 with male SD rat liver microsomes in the presence of UDPGA was conducted in phosphate buffer (0.1 M, pH 7.4) containing 1 mg/mL rat liver microsomal protein with final concentrations of 5 mM magnesium chloride and 4 mM UDPGA. This pilot incubation (1.0 mL incubation volume) was conducted using a substrate concentration of 100 μM at 37° C. for 60 mins. Incubations were terminated by the addition of an equal volume of chilled acetonitrile. Large-scale incubations (a total of 37 incubations @ 5.0 mL incubation volume) to generate sufficient quantities of the glucuronide metabolites for structure elucidation were subsequently conducted as described above at 37° C. for 60 mins. Appropriate substrate controls and incubations without addition of UDPGA were also carried out. Reserved phase-HPLC was utilized for all metabolite analysis. To confirm the formation of glucuronide and sulfate conjugates of ERB-041 in pilot scale incubations, HPLC analysis was performed using an Agilent 1100 LC system equipped with a diode array detector (Agilent Technologies, Wilmington, Del.). […] Separation of the two metabolites was achieved using gradient solvent system B as described supra.

On to `Oc1cc(Br)c2oc(-c3ccc(O)c(F)c3)nc2c1` [Example 21, 7-BROMO-2-(3-FLUORO-4-HYDROXYPHENYL)-1,3-BENZOXAZOL-5-OL], for which the “Progesterone receptor mRNA (mean ± stdev)” value in data set [1] worked out at 110.5 ± 19.3 arbitrary units.
`C=Cc1cc(O)cc2nc(-c3ccc(O)c(F)c3)oc12` [Example 24, 2-(3-FLUORO-4-HYDROXYPH ENYL)-7-VI NYL-1,3-BENZOXAZOL-5-OL]: the Joint inflammation score is on record as 0.00 in the data set with Lewis rats [2] (s.c. daily from Day 1, Day 1); 1.00 in the data set on Lewis rats [2] (s.c. daily from Day 1, Day 2); 4.50 in the data set with Lewis rats [2] (s.c. daily from Day 1, Day 3); 4.83 with Lewis rats [2] (s.c. daily from Day 1, Day 4); 5.83 in the data set on Lewis rats [2] (s.c. daily from Day 1, Day 5); 6.16 in the data set with Lewis rats [2] (s.c. daily from Day 1, Day 6). Moreover, the Joint inflammation score came out at 6.16 in the data set with Lewis rats [2] (s.c. daily from Day 1, Day 7); 5.33 in the data set on Lewis rats [2] (s.c. daily from Day 1, Day 8); 5.66 with Lewis rats [2] (s.c. daily from Day 1, Day 9); 4.33 with Lewis rats [2] (s.c. daily from Day 1, Day 10); 3.16 in the data set on Lewis rats [2] (s.c. daily from Day 1, Day 11); 3.16 in the data set with Lewis rats [2] (s.c. daily from Day 1, Day 12). Besides, the Joint inflammation score with Lewis rats [2] (s.c. daily from Day 1, Day 13) is recorded as 2.16; with Lewis rats [2] (s.c. daily from Day 1, Day 14), 3.33; in the data set with Lewis rats [2] (s.c. daily from Day 1, Day 15), 3.00; with Lewis rats [2] (s.c. daily from Day 1, Day 16), 1.66; in the data set on Lewis rats [2] (s.c. daily from Day 1, Day 17), 1.50; in the data set with Lewis rats [3] (table Day 1), 11.33. The Joint inflammation score worked out at 11.15 with Lewis rats [3] (table Day 2); 11.33 in the data set with Lewis rats [3] (table Day 3); 9.50 with Lewis rats [3] (table Day 4); 8.00 in the data set on Lewis rats [3] (table Day 5); 7.00 in the data set with Lewis rats [3] (table Day 6); 5.83 in the data set with Lewis rats [3] (table Day 7). The Joint inflammation score was determined as 4.83 in the data set on Lewis rats [3] (table Day 8); 3.50 in the data set with Lewis rats [3] (table Day 9); 3.83 in the data set with Lewis rats [3] (table Day 10); 3.83 with Lewis rats [3] (table Day 11); 3.83 in the data set on Lewis rats [3] (table Day 12); 3.16 in the data set with Lewis rats [3] (table Day 13). The Joint inflammation score was 3.16 with Lewis rats [3] (table Day 14), 2.83 in the data set on Lewis rats [3] (table Day 15), 2.83 with Lewis rats [3] (table Day 16) and 2.00 with Lewis rats [3] (table Day 17). For the same compound, the “lesions at necropsy versus vehicle” value in data set [4] (10 mg/kg, evaluated three times) is “fewer lesions at necropsy than those mice dosed with vehicle”. The “lesions found per animal” value in data set [4] (Study 1, 10 mg/kg oral daily) is listed as “one lesion”. Further, the “mice with lesion regression” value in data set [4] (Study 1, 10 mg/kg oral daily) is on record as “four of six mice”. For the same compound, the “mice with any lesions at necropsy” value in data set [4] (Study 1, 10 mg/kg oral daily, vehicle: four of four mice) is reported as “two of six mice”. Also, in the data set on Female Mongolian gerbils, the “Neurogranin mRNA (mean ± stdev)” value worked out at 0.0 arbitrary units. The Metabolites detected result in data set [5] was “two major metabolites, M5 and M6, were detected”.
